Values of other authors as cited in patent US20220401390A1, “TREATMENTS OF DIABETIC MACULAR EDEMA AND IMPAIRED VISUAL ACUITY” (KALVISTA PHARMACEUTICALS LIMITED, priority 2019, published 2022).

B1: ranibizumab: anti-VEGF therapy for DME currently in use (antibody, chains of the INN, looked up, V domains shown)
VH: EVQLVESGGGLVQPGGSLRLSCAASGYDFTHYGMNWVRQAPGKGLEWVGWINTYTGEPTYAADFKRRFTFSLDTSKSTAYLQMNSLRAEDTAVYYCAKYPYYYGTSHWYFDVWGQGTLVTVSS
VL: DIQLTQSPSSLSASVGDRVTITCSASQDISNYLNWYQQKPGKAPKVLIYFTSSLHSGVPSRFSGSGSGTDFTLTISSLQPEDFATYYCQQYSTVPWTFGQGTKVEIK
modifications: Fab
notes: anti-VEGF therapy for DME currently in use

How the values were obtained:
[1] = test system: patients with DME; settings: clinical trials, after one year; cited from earlier work
[2] = test system: diabetic rats; settings: cited from earlier work

Molecule	Efficacy compared with laser therapy [1]	Retinal vascular permeability and retinal blood flow abnormalities [2]
aflibercept: anti-VEGF therapy for DME currently in use	more effective than laser therapy	
bevacizumab: anti-VEGF therapy for DME currently in use	more effective than laser therapy	
pegaptanib	more effective than laser therapy	
N=C(N)c1ccc(CNC(=O)c2cnn(Cc3ccccc3)c2)cc1 [ASP-440]		ameliorated
B1	more effective than laser therapy	
